Source: patent publication US9757375B2, “Compounds that inhibit human DNA ligases and methods of treating cancer” (University of Maryland, Baltimore, priority 2007, dated 2017)

Experiments:
hLigIIIβ = target: T1, hLigIIIβ (Homo sapiens, UniProt P49916); test: Radioactive gel-based DNA ligation assay; format: biochemical; conditions: grades ±, Ø (key not given)
T1 sequence (P49916 1-862 isoform P49916-4): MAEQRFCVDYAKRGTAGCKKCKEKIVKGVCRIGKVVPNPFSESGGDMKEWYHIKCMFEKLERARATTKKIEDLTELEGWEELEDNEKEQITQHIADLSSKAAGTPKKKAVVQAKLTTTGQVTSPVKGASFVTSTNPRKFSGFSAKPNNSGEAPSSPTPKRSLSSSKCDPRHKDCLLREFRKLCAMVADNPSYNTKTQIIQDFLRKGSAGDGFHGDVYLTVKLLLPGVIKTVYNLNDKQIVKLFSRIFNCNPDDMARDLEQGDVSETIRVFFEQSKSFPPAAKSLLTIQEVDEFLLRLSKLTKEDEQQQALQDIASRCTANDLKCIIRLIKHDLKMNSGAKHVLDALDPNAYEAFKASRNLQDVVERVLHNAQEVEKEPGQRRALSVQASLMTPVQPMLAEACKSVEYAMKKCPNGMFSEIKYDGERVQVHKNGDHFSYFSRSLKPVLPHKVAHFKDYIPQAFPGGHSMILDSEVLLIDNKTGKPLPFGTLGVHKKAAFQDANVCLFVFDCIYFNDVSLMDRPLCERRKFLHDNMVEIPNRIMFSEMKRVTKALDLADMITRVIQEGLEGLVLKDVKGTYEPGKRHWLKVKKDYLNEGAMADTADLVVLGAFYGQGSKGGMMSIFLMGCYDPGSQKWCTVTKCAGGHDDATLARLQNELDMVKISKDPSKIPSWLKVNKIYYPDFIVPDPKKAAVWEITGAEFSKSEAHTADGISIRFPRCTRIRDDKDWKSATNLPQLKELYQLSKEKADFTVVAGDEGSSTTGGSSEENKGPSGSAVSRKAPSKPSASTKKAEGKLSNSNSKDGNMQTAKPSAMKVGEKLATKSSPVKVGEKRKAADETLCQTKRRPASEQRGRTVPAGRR

HCT116 and MCF10A cells = test: Screen for potentiation of DNA damaging agents, cell line not stated with the result; format: cell-based, human; conditions: for radiosensitizer activity / synergy with PARP inhibitors / enhancement of the cytostatic effect of MMS: 50 μM; for radiosensitizer activity: 2 gray of ionizing radiation; for synergy with PARP inhibitors: 3 AB 2 mM; for cell survival: sensitivity to DNA damaging agent (IR, MMS): cell line not stated; for enhancement of the cytostatic effect of MMS: MMS 100 μM
Description: The 192 human DNA ligase inhibitors were screened in parallel for effects on proliferation and the ability to potentiate the effects of several DNA damaging agents using two cell human lines, a colon cancer line HCT116 and a normal breast epithelial cell line MCF10A using a Biomek FX Laboratory Automation Workstation as described (23). The DNA damaging agents used, methyl methanesulfonate (MMS), camptothecin, cis-platinum, 3 aminobenzamide and ionizing radiation, are representatives of classes of agents used to treat cancer. Briefly, HCT116 and MCF10A cells were plated in 96 well plates such that the cultures were about 80% confluent after 5 days incubation. Compounds were added to the cultures at either 15 μM or 50 μM 1 day after plating. After incubation for 3 days, cell lysed in a solution containing 1.2% Igepal CA-630 and SYBR green that stains DNA (1:1000, Molecular Probes, Eugene, Oreg.). Subsequently, fluorescence was measured per well. The studies with DNA damaging agents were performed as follows. […] For ionizing radiation, cells were pre-incubated with the compounds at 50 μM for 1 hour prior to exposure to 2 gray of ionizing radiation. Cultures were incubated for 3 days and then treated as above.

[1] = tested on: Human DNA ligases I, III and IV and T4 DNA ligase; test: Step 1 of the ligation reaction: ligase-AMP complex formation with [α32P] ATP; format: biochemical; conditions: for inhibition of the first step of the ligation reaction (ligase-AMP formation): 100 μM, FIG. 3A
Method: Human DNA ligases I, III and IV and T4 DNA ligase were incubated with [α^32P] ATP in the absence or presence of compounds 67, 82 and 189 (100 μM). After separation by SDS-PAGE, the labeled ligase-AMP complex was detected by phosphorimaging.

T4 DNA ligase = target: T2, T4 DNA ligase (Enterobacteria phage T4, UniProt P00970); test: Radioactive gel-based DNA ligation assay; format: biochemical, bacteriophage T4; conditions: FIG. 2B
T2 construct: purchased NEB
T2 sequence (P00970 1-487): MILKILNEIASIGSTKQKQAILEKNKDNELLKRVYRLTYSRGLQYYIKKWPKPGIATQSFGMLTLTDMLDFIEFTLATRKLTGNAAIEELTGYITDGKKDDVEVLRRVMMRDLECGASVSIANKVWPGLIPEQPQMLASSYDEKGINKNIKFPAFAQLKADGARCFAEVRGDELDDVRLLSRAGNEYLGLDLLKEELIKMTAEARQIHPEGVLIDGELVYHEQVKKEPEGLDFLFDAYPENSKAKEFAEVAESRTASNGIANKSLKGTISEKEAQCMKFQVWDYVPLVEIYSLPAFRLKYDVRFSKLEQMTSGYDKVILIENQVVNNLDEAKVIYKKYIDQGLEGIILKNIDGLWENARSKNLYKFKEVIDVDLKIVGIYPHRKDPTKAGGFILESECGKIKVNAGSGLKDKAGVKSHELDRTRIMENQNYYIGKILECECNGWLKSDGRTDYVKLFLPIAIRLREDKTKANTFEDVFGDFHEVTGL
Method: A radioactive gel-based DNA ligation assay was performed as previously described (22). A 25-mer (5′-CGCCAGGGTTTTCCCAGTCACGACC-3′), and a 5′-[^32P] end-labeled 18-mer (5′-GTA AAA CGA CGG CCA GTG-3′) were annealed to a complementary 44-mer oligonucleotide, generating a linear duplex with a central nick. DNA joining reactions (30 μL) containing 0.5 pmol of labeled DNA substrate, and hLigI (0.02 pmol), hLigIIIβ (0.02 pmol), hLigIV/XRCC4 (0.1 pmol), or T4 DNA ligase (0.02 pmol) in ligation buffer were incubated in the absence or presence of ligase inhibitors at 25° C. for 30 min.
The effect of Compounds 67, 82 and 189 on DNA joining by human DNA ligases I, III and IV and T4 DNA ligase was determined. The IC50 values determined for Compounds 67, 82 and 189 using the fluorescence-based DNA joining assay (22) are shown for each of the DNA ligases. The effect of Compounds 67, 82 and 189 on DNA joining by human DNA ligases I, III and IV and T4 DNA ligase was determined using the radioactive gel-based assay (24). Representative gels of DNA ligation assays. The results of three independent experiments are shown graphically.

Compound | % activity Inhibition hLigIII gel (hLigIIIβ) | cell survival: sensitivity to DNA damaging agent (IR, MMS) (HCT116 and MCF10A cells) | inhibition of DNA joining by T4 DNA ligase (T4 DNA ligase) | inhibition of the first step of the ligation reaction (ligase-AMP formation) [1] | other results
C/C(O)=C1/C(=O)N(c2nc3ccccc3s2)N=C1c1ccccc1 [Compound 43] | Ø |  |  |  | 
O=C(O)CSc1cc(Cl)c2nonc2c1[N+](=O)[O-] [Compound 64] |  | IR sensitive |  |  | radiosensitizer activity (HCT116 and MCF10A cells): act as radiosensitizers; synergy with PARP inhibitors (HCT116 and MCF10A cells): act synergistically with PARP inhibitors; Mechanism: ligation step inhibited (1st step) ([1]; Table 5A): 1st step
Cc1c(Br)cc(NCC(=O)N/N=C\c2cc([N+](=O)[O-])ccc2O)cc1Br [Compound 67] |  | IR, MMS sensitive | not significantly inhibited | did not inhibit | synergy with PARP inhibitors (HCT116 and MCF10A cells): act synergistically with PARP inhibitors; enhancement of the cytostatic effect of MMS (HCT116 and MCF10A cells): enhance the cytostatic effect of MMS
O=c1[nH]ncc(N/N=C\c2ccc(O)c([N+](=O)[O-])c2)c1Cl [Compound 82] |  |  | not significantly inhibited | did not inhibit | 
O=C(Cn1cnc([N+](=O)[O-])n1)N/N=C/c1ccc(O)cc1O [Compound 151] | Ø | MMS sensitive |  |  | radiosensitizer activity (HCT116 and MCF10A cells): act as radiosensitizers; enhancement of the cytostatic effect of MMS (HCT116 and MCF10A cells): enhance the cytostatic effect of MMS
CS(=O)(=O)NNC(=O)C(=O)NNc1ccccc1 [Compound 184] | Ø |  |  |  | 
Nc1nc(S)nc(O)c1/N=C/c1ccccc1 [Compound 189] |  | IR sensitive | not significantly inhibited | did not inhibit | 
COc1ccc(-c2cnc3c(O)nc(O)nc3n2)cc1 [Compound 190] | Ø |  |  |  | 
